From patent US20260008787A1, “FUSED RING KRAS INHIBITORS FOR TREATING DISEASE” (BLOSSOMHILL THERAPEUTICS, INC., priority 2022, published 2026)

Legend:
SW620 (KRAS G12V) [1] = test: Cell proliferation assay (CellTiter-Glo, 72 hours), SW620; type: cell-based; details: Homo sapiens, SW-620, 72 h, 384-well, CellTiter-Glo 2.0
Experimental: (§1) Two thousand KRAS mutant cells per well were seeded in 384-well white plate and then treated with indicated compounds for 72 hours at 37° C. and 5% CO2. Cell proliferation was measured using CellTiter-Glo 2.0 luciferase-based ATP detection assay (Promega, Madison, WI) following the manufacturer's protocol. IC50 values were determined using Prism software (GraphPad Software, San Diego, CA).

GP2D (KRAS G12D) [2] = test: Cell proliferation assay (CellTiter-Glo, 72 hours), GP2D; type: cell-based; details: GP2d, 72 h, 384-well, CellTiter-Glo 2.0
Experimental: as §1

KRAS G12V = KRAS G12V (Homo sapiens, UniProt P01116, G12V); test: biochemical
AGS (G12D) = test: Cell proliferation assay (CellTiter-Glo, 72 hours), AGS; type: cell-based; details: 72 h, 384-well, CellTiter-Glo 2.0
Experimental: as §1

KRAS G12D = KRAS G12D (Homo sapiens, UniProt P01116, G12D); test: biochemical
CAPAN-2 (KRAS G12V) = test: Cell proliferation assay Method B (5 days), CAPAN-2; type: cell-based; details: Homo sapiens, Capan-2, 120 h, 96-well, read-out: Anti-Cell Proliferation IC50 (nM), CAPAN-2
Experimental: as §1, with “Method B: Two” for “Two”, “96-well black” for “384-well white”, “5 days” for “72 hours”

HPAC (KRAS G12D) = test: Cell proliferation assay Method B (5 days), HPAC; type: cell-based; details: Homo sapiens, 120 h, 96-well, read-out: Anti-Cell Proliferation IC50 (nM), HPAC
Experimental: as §1, with “Method B: Two” for “Two”, “96-well black” for “384-well white”, “5 days” for “72 hours”

[3] = tested on: Phospho-ERK in AGS (KRAS G12D) cells; test: Kinase phosphorylation assay (Phospho-ERK), AGS; type: cell-based; details: 3 hours treatment, normalized to β-actin, read-out: pERK ½ IC50 (nM), AGS
Experimental: (§2) KRAS mutant cells were plated in clear bottom 96 well plates at a density of 50,000-120,000 cells per well. Cells were allowed to attach overnight and then treated with compounds for 3 hours. After treatment, cells were fixed with 10% buffered formalin for 20 minutes at room temperature, washed with PBS, and then permeabilized with ice cold 100% methanol for 10 minutes to overnight at −20° C. Odyssey Blocking Buffer (LiCOR Biosciences: 927-60001) was added to each well for 1 hour at room temperature prior to incubation with primary antibodies overnight at 4° C. The primary antibodies used were as follows: Phospho-ERK (Cell Signaling: CS-9101) diluted to 1:250 and […] (Cell Signaling: CS-3700) diluted to 1:2000 in Odyssey Blocking Buffer+0.05% Tween20. Plates were washed 3× with Wash Buffer (PBS+0.1% Tween20) and incubated with secondary antibodies for 2 hours at room temperature. The following secondary antibodies were used: goat anti-rabbit-800 (LI-COR: 926-32211) and goat anti-mouse-680 (LICOR: 926-68070) both diluted to 1:2000 in Odyssey Blocking Buffer+0.05% Tween20. […] Phospho-ERK signal was normalized to β-actin signal for each well and the percent of DMSO control values were calculated. IC50 values were calculated using the sigmoidal dose-response (variable slope) equation in GraphPad Prism 4.

HCT116 (KRAS G13D) = test: Cell proliferation assay Method B (5 days), HCT116; type: cell-based; details: Homo sapiens, HCT-116, 120 h, 96-well, read-out: Anti-Cell Proliferation IC50 (nM), HCT116
Experimental: as §1, with “Method B: Two” for “Two”, “96-well black” for “384-well white”, “5 days” for “72 hours”

PANC0504 (KRAS G12D) = test: Cell proliferation assay Method B (5 days), PANC0504; type: cell-based; details: Panc 05.04, 120 h, 96-well, read-out: Anti-Cell Proliferation IC50 (nM), PANC0504
Experimental: as §1, with “Method B: Two” for “Two”, “96-well black” for “384-well white”, “5 days” for “72 hours”

[4] = tested on: Phospho-ERK in SW620 (KRAS G12V) cells; test: Kinase phosphorylation assay (Phospho-ERK), SW620; type: cell-based; details: Homo sapiens, SW-620, 3 hours treatment, normalized to β-actin, read-out: pERK ½ IC50 (nM), SW620
Experimental: as §2

MiaPaCa2 (KRAS G12C) = test: Cell proliferation assay Method B (5 days), MiaPaCa2; type: cell-based; details: Homo sapiens, MIA PaCa-2, 120 h, 96-well, read-out: Anti-Cell Proliferation IC50 (nM), MiaPaCa2
Experimental: as §1, with “Method B: Two” for “Two”, “96-well black” for “384-well white”, “5 days” for “72 hours”

SW620 (KRAS G12V) [5] = test: Cell proliferation assay Method B (5 days), SW620; type: cell-based; details: Homo sapiens, SW-620, 120 h, 96-well, read-out: Anti-Cell Proliferation IC50 (nM), SW620
Experimental: as §1, with “Method B: Two” for “Two”, “96-well black” for “384-well white”, “5 days” for “72 hours”

H358 (KRAS G12C) = test: Cell proliferation assay Method B (5 days), H358; type: cell-based; details: Homo sapiens, NCI-H358, 120 h, 96-well, read-out: Anti-Cell Proliferation IC50 (nM), H358
Experimental: as §1, with “Method B: Two” for “Two”, “96-well black” for “384-well white”, “5 days” for “72 hours”

GP2D (KRAS G12D) [6] = test: Cell proliferation assay Method B (5 days), GP2D; type: cell-based; details: 120 h, 96-well, read-out: Anti-Cell Proliferation IC50 (nM), GP2D
Experimental: as §1, with “Method B: Two” for “Two”, “96-well black” for “384-well white”, “5 days” for “72 hours”

H2291 (KRAS G12F) = test: Cell proliferation assay Method B (5 days), H2291; type: cell-based; details: Homo sapiens, NCI-H2291, 120 h, 96-well, read-out: Anti-Cell Proliferation IC50 (nM), H2291
Experimental: as §1, with “Method B: Two” for “Two”, “96-well black” for “384-well white”, “5 days” for “72 hours”

[7] = tested on: Phospho-ERK in HCT116 (KRAS G13D) cells; test: Kinase phosphorylation assay (Phospho-ERK), HCT116; type: cell-based; details: Homo sapiens, HCT-116, 3 hours treatment, normalized to β-actin, read-out: pERK ½ IC50 (nM), HCT116
Experimental: as §2

[8] = tested on: Phospho-ERK in H2291 (KRAS G12F) cells; test: Kinase phosphorylation assay (Phospho-ERK), H2291; type: cell-based; details: Homo sapiens, NCI-H2291, 3 hours treatment, normalized to β-actin, read-out: pERK ½ IC50 (nM), H2291
Experimental: as §2

AGS (KRAS G12D) = test: Cell proliferation assay Method B (5 days), AGS; type: cell-based; details: 120 h, 96-well, read-out: Anti-Cell Proliferation IC50 (nM), AGS
Experimental: as §1, with “Method B: Two” for “Two”, “96-well black” for “384-well white”, “5 days” for “72 hours”

PANC0403 (KRAS G12D) = test: Cell proliferation assay Method B (5 days), PANC0403; type: cell-based; details: Homo sapiens, Panc 04.03, 120 h, 96-well, read-out: Anti-Cell Proliferation IC50 (nM), PANC0403
Experimental: as §1, with “Method B: Two” for “Two”, “96-well black” for “384-well white”, “5 days” for “72 hours”

H23 (KRAS G12C) = test: Cell proliferation assay Method B (5 days), H23; type: cell-based; details: 120 h, 96-well, read-out: Anti-Cell Proliferation IC50 (nM), H23
Experimental: as §1, with “Method B: Two” for “Two”, “96-well black” for “384-well white”, “5 days” for “72 hours”

AsPC1 (KRAS G12D) = test: Cell proliferation assay Method B (5 days), AsPC1; type: cell-based; details: Homo sapiens, ASPC1, 120 h, 96-well, read-out: Anti-Cell Proliferation IC50 (nM), AsPC1
Experimental: as §1, with “Method B: Two” for “Two”, “96-well black” for “384-well white”, “5 days” for “72 hours”

Sequence of KRAS G12V (P01116 1-188 isoform P01116-2 G12V): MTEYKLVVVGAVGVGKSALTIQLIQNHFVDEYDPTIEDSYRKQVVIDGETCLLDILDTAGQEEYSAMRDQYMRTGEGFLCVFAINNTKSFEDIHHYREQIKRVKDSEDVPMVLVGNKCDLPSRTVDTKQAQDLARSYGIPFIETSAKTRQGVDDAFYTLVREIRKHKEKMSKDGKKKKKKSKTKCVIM
Sequence of KRAS G12D (P01116 1-188 isoform P01116-2 G12D): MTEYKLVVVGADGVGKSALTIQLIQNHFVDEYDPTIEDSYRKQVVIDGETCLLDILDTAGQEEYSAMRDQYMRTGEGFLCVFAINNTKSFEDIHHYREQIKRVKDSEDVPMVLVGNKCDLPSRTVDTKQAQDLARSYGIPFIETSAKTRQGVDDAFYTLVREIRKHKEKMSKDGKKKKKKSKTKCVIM

Row | SMILES | IC50 (SW620 (KRAS G12V) [1]) | IC50 (GP2D (KRAS G12D) [2]) | IC50 (KRAS G12V) | IC50 (AGS (G12D)) | IC50 (KRAS G12D) | IC50 (CAPAN-2 (KRAS G12V)) | IC50 (HPAC (KRAS G12D)) | IC50 [3] | IC50 (HCT116 (KRAS G13D)) | IC50 (PANC0504 (KRAS G12D)) | IC50 [4] | IC50 (MiaPaCa2 (KRAS G12C)) | IC50 (SW620 (KRAS G12V) [5]) | IC50 (H358 (KRAS G12C)) | IC50 (GP2D (KRAS G12D) [6]) | IC50 (H2291 (KRAS G12F)) | IC50 [7] | IC50 [8] | IC50 (AGS (KRAS G12D)) | IC50 (PANC0403 (KRAS G12D)) | also measured
1 | C#Cc1c(F)ccc2cc(O)cc(-c3nc4c5c(nc(OC[C@@]67CCCN6C[C@H](F)C7)nc5c3F)N(CC)[C@@H](C)CO4)c12 [Example 127, 4-[(9S)-10-ethyl-4-fluoro-2-{[(2R,7aS)-2-fluorotetrahydro-1H-pyrrolizin-7a(5H)-yl]methoxy}-9-methyl-9,10-dihydro-8H-7-oxa-1,3,6,10-tetraazacyclohepta[1,2,3-de]naphthalen-5-yl]-5-ethynyl-6-fluoronaphthalen-2-ol] | 0.00986 µM | 0.00454 µM | 0.0032 µM | 0.0088 µM | 0.00261 µM |  |  |  |  |  |  |  |  |  |  |  |  |  |  |  | 
2 | C#Cc1c(F)ccc2cc(O)cc(-c3nc4c5c(nc(OC[C@@]67CCCN6C[C@H](F)C7)nc5c3F)N3CCCC[C@H]3CO4)c12 [compound 1, 5-ethynyl-6-fluoro-4-((S)-4-fluoro-2-(((2R,7aS)-2-fluorotetrahydro-1H-pyrrolizin-7a(5H)-yl)methoxy)-8,8a,9,10,11,12-hexahydro-7-oxa-1,3,6,12a-tetraazabenzo[4,5]cyclohepta[1,2,3-de]naphthalen-5-yl)naphthalen-2-ol] | 0.0104 µM | 0.00251 µM |  | 0.0069 µM |  | 35.2 nM | 18.9 nM | 3.46 nM | 474 nM | 9 nM | 3.24 nM | 15.2 nM | 9.6 nM | 49.2 nM | 2.8 nM | 5.7 nM | 14.1 nM | 4.29 nM | 14.8 nM | 27.7 nM | IC50 (H23 (KRAS G12C)): 47.4 nM; IC50 (AsPC1 (KRAS G12D)): 108 nM
3 | CCc1c(F)ccc2cc(O)cc(-c3nc4c5c(nc(OC[C@@]67CCCN6C[C@H](F)C7)nc5c3F)N3CCCC[C@H]3CO4)c12 [compound 2, 5-ethyl-6-fluoro-4-[(8aS)-4-fluoro-2-{[(2R,7aS)-2-fluorotetrahydro-1H-pyrrolizin-7a(5H)-yl]methoxy}-8,8a,9,10,11,12-hexahydro-7-oxa-1,3,6,12a-tetraazabenzo[4,5]cyclohepta[1,2,3-de]naphthalen-5-yl]naphthalen-2-ol] | 0.0414 µM | 0.0172 µM | 0.00183 µM | 0.0523 µM | 0.00396 µM | 60.2 nM | 94.5 nM | 19.6 nM | > 3000 nM | 44 nM | 22.1 nM | 68.1 nM | 43.8 nM | 222 nM | 11.3 nM | 37.2 nM | 93.4 nM | 65 nM | 86.2 nM | 76.7 nM | IC50 (H23 (KRAS G12C)): 145 nM; IC50 (AsPC1 (KRAS G12D)): 213 nM
4 | C#Cc1c(F)ccc2cc(O)cc(-c3nc4c5c(nc(OC[C@@]67CCCN6C[C@H](F)C7)nc5c3F)N3CCC[C@@H](O)[C@H]3CO4)c12 [compound 25, (8aR,9R)-5-(8-ethynyl-7-fluoro-3-hydroxynaphthalen-1-yl)-4-fluoro-2-{[(2R,7aS)-2-fluorotetrahydro-1H-pyrrolizin-7a(5H)-yl]methoxy}-8,8a,9,10,11,12-hexahydro-7-oxa-1,3,6,12a-tetraazabenzo[4,5]cyclohepta[1,2,3-de]naphthalen-9-ol] | 0.654 µM | 0.0764 µM | 0.00216 µM | 0.166 µM | 0.00203 µM |  |  |  |  |  |  |  |  |  |  |  |  |  |  |  | 
5 | C#Cc1c(F)ccc2cc(O)cc(-c3nc4c5c(nc(OC[C@@]67CCCN6C[C@H](F)C7)nc5c3F)N3CCC[C@H](O)[C@@H]3CO4)c12 [compound 103, (8aS,9S)-5-(8-ethynyl-7-fluoro-3-hydroxynaphthalen-1-yl)-4-fluoro-2-{[(2R,7aS)-2-fluorotetrahydro-1H-pyrrolizin-7a(5H)-yl]methoxy}-8,8a,9,10,11,12-hexahydro-7-oxa-1,3,6,12a-tetraazabenzo[4,5]cyclohepta[1,2,3-de]naphthalen-9-ol] | > 3 µM | 0.58 µM | 0.0159 µM | 0.924 µM | 0.0224 µM |  |  |  |  |  |  |  |  |  |  |  |  |  |  |  | 
